Laboratory results as given in US9051270B2, “Pyridone amides as modulators of sodium channels” (Vertex Pharmaceuticals Incorporated, priority 2013, dated 2015).

Biological target: human Nav1.8 (Homo sapiens (Human), UniProt Q9Y5Y9)
Assay: E-VIPR optical membrane potential assay with electrical stimulation
Assay type: cell-based
Details: HEK cells expressing human Nav1.8
Excerpt: Sodium channels are voltage-dependent proteins that can be activated by inducing membrane voltage changes by applying electric fields. […] The instrument comprises a microtiter plate handler, an optical system for exciting the coumarin dye while simultaneously recording the coumarin and oxonol emissions, a waveform generator, a current- or voltage-controlled amplifier, and a device for inserting electrodes in well. Under integrated computer control, this instrument passes user-programmed electrical stimulus protocols to cells within the wells of the microtiter plate.
24 hours before the assay on E-VIPR, HEK cells expressing human Nav1.8 were seeded in 384-well poly-lysine coated plates at 15,000-20,000 cells per well. […] Cells were grown in vented cap flasks, in 90% humidity and 5% CO2.
To make the solution added volume of 10% Pluronic F127 stock equal to volumes of CC2-DMPE+DiSBAC6(3). The order of preparation was first mixing Pluronic and CC2-DMPE, then adding DiSBAC6(3) while vortexing, then adding Bath1+β-Cyclodextrin.
1) Pre-spotted compounds (in neat DMSO) into compound plates. […] Final compound plate volume was 80 μL (80-fold intermediate dilution from 1 μL DMSO spot; 160-fold final dilution after transfer to cell plate).
2) Prepared Hexyl Dye Solution.
3) Prepared cell plates. On the day of the assay, medium was aspirated and cells were washed three times with 100 μL of Bath1 Solution, maintaining 25 μL residual volume in each well.
4) Dispensed 25 μL per well of Hexyl Dye Solution into cell plates. Incubated for 20-35 minutes at room temp or ambient conditions.
5) Dispensed 80 μL per well of Bath1 into compound plates. Acid Yellow-17 (1 mM) was added and Potassium Chloride was altered from 4.5 to 20 mM depending on the NaV subtype and assay sensitivity.
6) Washed cell plates three times with 100 μL per well of Bath1, leaving 25 μL of residual volume. Then transferred 25 uL per well from Compound Plates to Cell Plates. Incubated for 20-35 minutes at room temp/ambient condition.
7) Read Plate on E-VIPR. […] A pre-stimulus recording was performed for 0.5 seconds to obtain the un-stimulated intensities baseline. The stimulatory waveform was followed by 0.5 seconds of post-stimulation recording to examine the relaxation to the resting state.
Data was analyzed and reported as normalized ratios of emission intensities measured in the 460 nm and 580 nm channels. The response as a function of time was reported as the ratios obtained using the following formula: […]
The data was further reduced by calculating the initial (Ri) and final (Rf) ratios. These were the average ratio values during part or all of the pre-stimulation period, and during sample points during the stimulation period. The response to the stimulus R=Rf/Ri was then calculated and reported as a function of time.
Control responses were obtained by performing assays in the presence of a compound with the desired properties (positive control), such as tetracaine, and in the absence of pharmacological agents (negative control). Responses to the negative (N) and positive (P) controls were calculated as above. The compound antagonist activity A is defined as:
[formula] where R is the ratio response of the test compound

Chain of human Nav1.8 (Q9Y5Y9 whole entry): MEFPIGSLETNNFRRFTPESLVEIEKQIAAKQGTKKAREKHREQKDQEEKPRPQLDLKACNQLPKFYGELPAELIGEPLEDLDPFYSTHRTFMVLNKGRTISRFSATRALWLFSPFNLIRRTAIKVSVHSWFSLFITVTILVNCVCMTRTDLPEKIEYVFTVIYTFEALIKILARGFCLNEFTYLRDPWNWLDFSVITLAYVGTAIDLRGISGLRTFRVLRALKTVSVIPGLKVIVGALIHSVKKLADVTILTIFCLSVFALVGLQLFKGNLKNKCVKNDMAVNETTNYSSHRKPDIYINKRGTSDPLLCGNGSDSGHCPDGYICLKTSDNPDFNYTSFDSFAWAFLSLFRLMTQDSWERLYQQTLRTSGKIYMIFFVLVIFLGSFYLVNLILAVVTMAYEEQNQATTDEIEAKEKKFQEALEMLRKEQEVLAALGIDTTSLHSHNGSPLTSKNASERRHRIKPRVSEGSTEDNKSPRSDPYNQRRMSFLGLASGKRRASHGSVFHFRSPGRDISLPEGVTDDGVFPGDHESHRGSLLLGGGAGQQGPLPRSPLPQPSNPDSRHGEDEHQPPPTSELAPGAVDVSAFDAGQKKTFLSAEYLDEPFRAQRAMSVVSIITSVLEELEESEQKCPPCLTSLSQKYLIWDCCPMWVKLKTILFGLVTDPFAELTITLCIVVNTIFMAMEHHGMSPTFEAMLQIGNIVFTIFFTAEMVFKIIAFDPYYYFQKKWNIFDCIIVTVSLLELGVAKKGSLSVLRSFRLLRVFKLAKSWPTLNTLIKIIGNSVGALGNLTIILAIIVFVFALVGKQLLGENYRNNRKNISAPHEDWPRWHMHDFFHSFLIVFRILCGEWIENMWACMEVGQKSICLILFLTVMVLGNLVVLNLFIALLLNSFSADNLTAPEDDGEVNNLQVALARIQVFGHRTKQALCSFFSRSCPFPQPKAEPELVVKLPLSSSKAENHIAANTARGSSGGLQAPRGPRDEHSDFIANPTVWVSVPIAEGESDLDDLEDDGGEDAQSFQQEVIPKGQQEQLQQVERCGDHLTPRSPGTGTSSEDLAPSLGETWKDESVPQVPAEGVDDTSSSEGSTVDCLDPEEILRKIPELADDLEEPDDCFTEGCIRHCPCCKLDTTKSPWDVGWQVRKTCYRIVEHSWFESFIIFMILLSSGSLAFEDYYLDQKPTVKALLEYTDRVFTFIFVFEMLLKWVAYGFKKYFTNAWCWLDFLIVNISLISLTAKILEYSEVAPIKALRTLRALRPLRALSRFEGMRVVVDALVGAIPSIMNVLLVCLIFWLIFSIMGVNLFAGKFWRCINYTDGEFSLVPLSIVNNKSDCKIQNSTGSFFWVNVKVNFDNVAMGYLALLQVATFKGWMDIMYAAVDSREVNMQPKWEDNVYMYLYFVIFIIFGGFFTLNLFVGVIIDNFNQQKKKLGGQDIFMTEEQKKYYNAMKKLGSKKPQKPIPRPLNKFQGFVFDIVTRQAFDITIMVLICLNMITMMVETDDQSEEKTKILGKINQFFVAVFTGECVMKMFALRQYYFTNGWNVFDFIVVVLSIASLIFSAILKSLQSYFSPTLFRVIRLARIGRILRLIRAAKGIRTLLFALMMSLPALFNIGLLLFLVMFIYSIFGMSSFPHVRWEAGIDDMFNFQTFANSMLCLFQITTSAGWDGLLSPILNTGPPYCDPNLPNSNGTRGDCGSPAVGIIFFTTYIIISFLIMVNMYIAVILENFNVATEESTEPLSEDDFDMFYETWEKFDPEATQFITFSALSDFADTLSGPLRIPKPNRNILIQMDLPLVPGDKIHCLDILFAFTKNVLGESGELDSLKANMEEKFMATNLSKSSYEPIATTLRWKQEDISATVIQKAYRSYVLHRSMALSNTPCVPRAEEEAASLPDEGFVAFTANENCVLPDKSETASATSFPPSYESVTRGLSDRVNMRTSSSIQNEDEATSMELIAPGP

Structure (SMILES)	IC50 [µM]
O=C(Nc1cc[nH]c(=O)c1)c1ccc(C(F)(F)F)cc1OCC1CCOC1 (stereo not shown) [Compound 121, N-(2-oxo-1,2-dihydropyridin-4-yl)-2-((tetrahydrofuran-3-yl)methoxy)-4-(trifluoromethyl)benzamide]	19
COc1ccc(Oc2ccc(C(F)(F)F)cc2C(=O)Nc2cc[nH]c(=O)c2)cc1F [Compound 59, 2-(3-fluoro-4-methoxyphenoxy)-N-(2-oxo-1,2-dihydropyridin-4-yl)-5-(trifluoromethyl)benzamide]	0.032
O=C(Nc1cc[nH]c(=O)c1)c1cc(C(F)(F)F)ccc1Oc1ccc(C(F)(F)F)cc1 [Compound 74, N-(2-oxo-1,2-dihydropyridin-4-yl)-5-(trifluoromethyl)-2-(4-(trifluoromethyl)phenoxy)benzamide]	5.17
CC(C)(C)Oc1ccc(Oc2ccc(F)cc2C(=O)Nc2cc[nH]c(=O)c2)cc1 [Compound 97, 2-(4-(tert-butoxy)phenoxy)-5-fluoro-N-(2-oxo-1,2-dihydropyridin-4-yl)benzamide]	0.745
O=C(Nc1cc[nH]c(=O)c1)c1ccc(Cl)cc1Oc1c(F)cccc1Cl [Compound 18, 4-chloro-2-(2-chloro-6-fluorophenoxy)-N-(2-oxo-1,2-dihydropyridin-4-yl)benzamide]	12
Cc1ccc(Oc2cc(C(F)(F)F)ccc2C(=O)Nc2cc[nH]c(=O)c2)cc1 [Compound 12, N-(2-oxo-1,2-dihydropyridin-4-yl)-2-(p-tolyloxy)-4-(trifluoromethyl)benzamide]	0.106
O=C(Nc1cc[nH]c(=O)c1)c1cc(C(F)(F)F)ccc1OCCC(F)(F)F [Compound 132, N-(2-oxo-1,2-dihydropyridin-4-yl)-5-(trifluoromethyl)-2-(3,3,3-trifluoropropoxy)benzamide]	0.33
CC(C)(C)c1ccc(C(=O)Nc2cc[nH]c(=O)c2)c(Oc2ccc(C(F)(F)F)nc2)c1 [Compound 141, 4-(tert-butyl)-N-(2-oxo-1,2-dihydropyridin-4-yl)-2-((6-(trifluoromethyl)pyridin-3-yl)oxy)benzamide]	0.078
O=C(Nc1cc[nH]c(=O)c1)c1cc(F)ccc1Oc1ccc(OCCCC(F)(F)F)cc1 [Compound 160, 5-fluoro-N-(2-oxo-1,2-dihydropyridin-4-yl)-2-(4-(4,4,4-trifluorobutoxy)phenoxy)benzamide]	1.39
Cc1ccccc1Oc1ccc(OC(F)(F)F)cc1C(=O)Nc1cc[nH]c(=O)c1 [Compound 36, N-(2-oxo-1,2-dihydropyridin-4-yl)-2-(o-tolyloxy)-5-(trifluoromethoxy)benzamide]	0.101
CC1(C)CC1COc1ccc(C(F)(F)F)cc1C(=O)Nc1cc[nH]c(=O)c1 (stereo not shown) [Compound 134, 2-((2,2-dimethylcyclopropyl)methoxy)-N-(2-oxo-1,2-dihydropyridin-4-yl)-5-(trifluoromethyl)benzamide]	21
O=C(Nc1cc[nH]c(=O)c1)c1cc(C(F)(F)F)ccc1Oc1ccccc1 [Compound 32, N-(2-oxo-1,2-dihydropyridin-4-yl)-2-phenoxy-5-(trifluoromethyl)benzamide]	0.205
COc1ccc(Oc2cc(C(F)(F)F)ccc2C(=O)Nc2cc[nH]c(=O)c2)c(F)c1 [Compound 84, 2-(2-fluoro-4-methoxyphenoxy)-N-(2-oxo-1,2-dihydropyridin-4-yl)-4-(trifluoromethyl)benzamide]	0.046
Cc1ccc(Oc2ccc(OC(F)(F)F)cc2C(=O)Nc2cc[nH]c(=O)c2)cc1 [Compound 35, N-(2-oxo-1,2-dihydropyridin-4-yl)-2-(p-tolyloxy)-5-(trifluoromethoxy)benzamide]	0.47
COc1cc(F)ccc1Oc1cc(C#N)ccc1C(=O)Nc1cc[nH]c(=O)c1 [Compound 22, 4-cyano-2-(4-fluoro-2-methoxyphenoxy)-N-(2-oxo-1,2-dihydropyridin-4-yl)benzamide]	0.1
O=C(Nc1cc[nH]c(=O)c1)c1c(Oc2ccc(F)cc2)cc(C(F)(F)F)cc1C(F)(F)F [Compound 155, 2-(4-fluorophenoxy)-N-(2-oxo-1,2-dihydropyridin-4-yl)-4,6-bis(trifluoromethyl)benzamide]	0.011
COc1ccc(Oc2ccc(F)cc2C(=O)Nc2cc[nH]c(=O)c2)c(Cl)c1 [Compound 103, 2-(2-chloro-4-methoxyphenoxy)-5-fluoro-N-(2-oxo-1,2-dihydropyridin-4-yl)benzamide]	0.33
O=C(Nc1cc[nH]c(=O)c1)c1ccc(C(F)(F)F)cc1Oc1ccc(C(F)(F)F)nc1 [Compound 144, N-(2-oxo-1,2-dihydropyridin-4-yl)-4-(trifluoromethyl)-2-((6-(trifluoromethyl)pyridin-3-yl)oxy)benzamide]	0.615
O=C(Nc1cc[nH]c(=O)c1)c1ccccc1Oc1ccc(F)cc1 [Compound 1, 2-(4-fluorophenoxy)-N-(2-oxo-1,2-dihydropyridin-4-yl)benzamide]	1.09
O=C(Nc1cc[nH]c(=O)c1)c1ccc(Cl)cc1OCCCC(F)(F)F [Compound 129, 4-chloro-N-(2-oxo-1,2-dihydropyridin-4-yl)-2-(4,4,4-trifluorobutoxy)benzamide]	0.94
COc1cc(F)ccc1Oc1cc(C(F)(F)F)cc(C(F)(F)F)c1C(=O)Nc1cc[nH]c(=O)c1 [Compound 154, 2-(4-fluoro-2-methoxyphenoxy)-N-(2-oxo-1,2-dihydropyridin-4-yl)-4,6-bis(trifluoromethyl)benzamide]	0.005
O=C(Nc1cc[nH]c(=O)c1)c1cc(C(F)(F)F)ccc1Oc1c(F)cccc1F [Compound 26, 2-(2,6-difluorophenoxy)-N-(2-oxo-1,2-dihydropyridin-4-yl)-5-(trifluoromethyl)benzamide]	9.65
O=C(Nc1cc[nH]c(=O)c1)c1cc(OC(F)(F)F)ccc1OCCC(F)(F)F [Compound 138, N-(2-oxo-1,2-dihydropyridin-4-yl)-5-(trifluoromethoxy)-2-(3,3,3-trifluoropropoxy)benzamide]	1.45
Cc1cccc(F)c1Oc1cc(Cl)ccc1C(=O)Nc1cc[nH]c(=O)c1 [Compound 17, 4-chloro-2-(2-fluoro-6-methylphenoxy)-N-(2-oxo-1,2-dihydropyridin-4-yl)benzamide]	1.8
O=C(Nc1ccc(=O)[nH]c1)c1ccc(C(F)(F)F)cc1Oc1ccc(C(F)(F)F)nc1 [Compound 145, N-(6-oxo-1,6-dihydropyridin-3-yl)-4-(trifluoromethyl)-2-((6-(trifluoromethyl)pyridin-3-yl)oxy)benzamide]	5
COc1c(F)cccc1Oc1cc(C(F)(F)F)ccc1C(=O)Nc1cc[nH]c(=O)c1 [Compound 87, 2-(3-fluoro-2-methoxyphenoxy)-N-(2-oxo-1,2-dihydropyridin-4-yk)-4-(trifluoromethyl)benzamide]	0.027
Cc1cccc(F)c1Oc1ccc(OC(F)(F)F)cc1C(=O)Nc1cc[nH]c(=O)c1 [Compound 39, 2-(2-fluoro-6-methylphenoxy)-N-(2-oxo-1,2-dihydropyridin-4-yl)-5-(trifluoromethoxy)benzamide]	0.69
Cn1cc(NC(=O)c2ccc(C(C)(C)C)cc2Oc2ccc(C(F)(F)F)nc2)ccc1=O [Compound 149, 4-(tert-butyl)-N-(1-methyl-6-oxo-1,6-dihydropyridin-3-yl)-2-((6-(trifluoromethyl)pyridin-3-yl)oxy)benzamide]	1.65
